Assay results as given in publication PMC10807611 (Cancer chemotherapy and pharmacology, 2023).

How the values were obtained:
[1] = Plasma pharmacokinetics on cycle 1 day 1; type: in vivo; conditions: human
[2] = test system: patients in the registration trial; conditions: package insert; cited from earlier work
[3] = test system: patients with relapsed/refractory AML or MDS; conditions: days 1–5 and 8–12 in combination with bortezomib; cited from earlier work

C=CCn1c(=O)c2cnc(Nc3ccc(N4CCN(C)CC4)cc3)nc2n1-c1cccc(C(C)(C)O)n1 [Adavosertib, adavosertib]
Cmax ([1]; in vivo, Cmax concentrations): ~500 nM
V/F ([1]; in vivo, po): 784.6 ± 204.3 L
Cl/F ([1]; in vivo, po, 225 mg): 57.0 ± 13.6 L/h
Tmax ([1]; in vivo, po, 225 mg): 3 h
AUC(0-inf) ([1]; in vivo, po, 225 mg, AUCINF): 7.41 µM·h
half-life ([1]; in vivo, po, 225 mg, T1/2): 9.7 ± 1.93 h

O=C(/C=C/c1cccc(S(=O)(=O)Nc2ccccc2)c1)NO [Belinostat, belinostat]
Patients with QTc prolongation, all grades [2]: 11%
Maximum tolerated dose (MTD) [3]: 1000 mg/m^2
clearance ([1]; plasma, iv, 800 mg/m2): 643 mL/min
Tmax ([1]; plasma, iv, 1000 mg/m2): 0.4 h
clearance ([1]; plasma, iv, 1000 mg/m2): 657 mL/min

O=C(/C=C/c1cccc(S(=O)(=O)Nc2ccccc2)c1)NO[C@@H]1O[C@H](C(=O)O)[C@@H](O)[C@H](O)[C@H]1O [Belinostat glucuronide, belinostat glucuronide]
AUCINF ([1]; in vivo, iv, 800 mg/m2): 396.0 ± 151.1 (6) μM·h
T1/2 ([1]; in vivo, iv, 800 mg/m2): 3.51 ± 0.95 (6) h
AUCINF ([1]; in vivo, iv, 1000 mg/m2): 668.6 ± 452.2 (4) μM·h
T1/2 ([1]; in vivo, iv, 1000 mg/m2): 4.41 ± 1.30 (4) h
